# Laboratory results taken from patent publication US11987568B2, “Allosteric inhibitor of WEE1 kinase” (H. LEE MOFFITT CANCER CENTER AND RESEARCH INSTITUTE, INC., priority 2018, dated 2024).
# Several values for one entry are separate records, joined by “and”; a condition that tells them apart may be missing. Equal entries are not always repeated.
# Target: full length human WEE1 kinase (Homo sapiens, UniProt P30291)
# Assay: ELISA based assay: WEE1 phosphorylation of biotinylated H2B peptide spanning Tyr37
# Assay type: biochemical
# Set-up: A full length human WEE1 kinase that was enzymatically active was purified from insect cell; ELISA assay % Inhibition: concentration or dose not given beside the values
# Details: for ELISA Inhibition (%): Table 1, several values in a cell are repeat determinations
# Source text: Designing of a Novel inhibitor Screening Platform: […] A full length human WEE1 kinase that was enzymatically active was purified from insect cell. […] NCI diversity set compound library ( 1600 compounds) was used for the screening.
# Sequence of full length human WEE1 kinase (P30291 whole entry): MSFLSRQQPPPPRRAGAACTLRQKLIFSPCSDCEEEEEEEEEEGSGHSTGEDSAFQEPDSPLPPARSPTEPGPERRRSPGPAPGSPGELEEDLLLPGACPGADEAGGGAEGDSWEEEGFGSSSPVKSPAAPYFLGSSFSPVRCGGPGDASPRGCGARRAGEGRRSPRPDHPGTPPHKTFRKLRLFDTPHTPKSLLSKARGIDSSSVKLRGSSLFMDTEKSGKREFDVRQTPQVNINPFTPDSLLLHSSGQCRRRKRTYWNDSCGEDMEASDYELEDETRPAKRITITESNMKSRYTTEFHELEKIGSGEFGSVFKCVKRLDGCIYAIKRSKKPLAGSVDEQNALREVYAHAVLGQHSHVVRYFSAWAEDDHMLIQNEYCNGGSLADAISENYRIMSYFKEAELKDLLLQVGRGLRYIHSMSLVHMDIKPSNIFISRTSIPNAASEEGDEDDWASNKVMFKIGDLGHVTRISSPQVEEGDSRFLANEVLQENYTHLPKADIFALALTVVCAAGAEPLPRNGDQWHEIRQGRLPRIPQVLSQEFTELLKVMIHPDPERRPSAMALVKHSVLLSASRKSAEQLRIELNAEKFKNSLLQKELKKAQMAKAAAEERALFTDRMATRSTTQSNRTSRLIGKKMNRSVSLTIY
Structure (SMILES),ELISA Inhibition (%),other results
CC(C)(C)OC(=O)Nc1ccc(NC(=O)c2cccc(C(=O)Nc3ccc(NC(=O)OC(C)(C)C)cc3)c2)cc1 [SG5-099],−14%,
Nc1ccc(NC(=O)c2cccc(C(=O)Nc3ccc(N)cc3)c2)cc1 [SG5-103],12%,
Cc1cc(C(=O)Nc2ccc(NC(=O)OC(C)(C)C)cc2)c(C)cc1C(=O)Nc1ccc(NC(=O)OC(C)(C)C)cc1 [SG5-106],−23%,
"CC(C)(C)OC(=O)Nc1ccc(NC(=O)c2ccc(C(=O)Nc3ccc(NC(=O)OC(C)(C)C)cc3)o2)cc1 [SG5-107, Di-tert-butyl (((furan-2,5-dicarbonyl)bis(azanediyl))bis(4,1-phenylene))dicarbamate]",−8%,
Cc1cc(C(=O)Nc2ccc(N)cc2)c(C)cc1C(=O)Nc1ccc(N)cc1 [SG5-110],14%,
"CC(C)(C)OC(=O)Nc1ccc(NC(=O)c2ccc(C(=O)Nc3ccc(NC(=O)OC(C)(C)C)cc3)nc2)cc1 [SG5-119, Di-tert-butyl (((pyridine-2,5-dicarbonyl)bis(azanediyl))bis(4,1-phenylene))dicarbamate]",−17%,
CC(C)(C)OC(=O)Nc1ccc(NC(=O)[C@H]2CC[C@H](C(=O)Nc3ccc(NC(=O)OC(C)(C)C)cc3)CC2)cc1 [SG5-121],−7%,
CC(C)(C)OC(=O)Nc1ccc(NC(=O)c2cccc(C(=O)Nc3ccc(NC(=O)OC(C)(C)C)cc3)n2)cc1 [SG5-123],−39%,
"Nc1ccc(NC(=O)c2ccc(C(=O)Nc3ccc(N)cc3)nc2)cc1 [SG5-124, N^2,N^5-bis(4-aminophenyl)pyridine-2,5-dicarboxamide]",73% and 103%,"ELISA assay % Inhibition (Table 3, No peptide = 100, No inhibitor = 0): 98%"
Nc1ccc(NC(=O)[C@H]2CC[C@H](C(=O)Nc3ccc(N)cc3)CC2)cc1 [SG5-126],−39%,
Nc1ccc(NC(=O)c2cccc(C(=O)Nc3ccc(N)cc3)n2)cc1 [SG5-128],2%,
CC(C)(C)OC(=O)Nc1ccc(NC(=O)c2ccc(C(=O)Nc3ccc(NC(=O)OC(C)(C)C)c(F)c3)cc2)cc1F [SG5-133-1],−57%,
CC(C)(C)OC(=O)Nc1ccc(NC(=O)c2ccc(C(=O)Nc3ccc(NC(=O)OC(C)(C)C)c(Cl)c3)cc2)cc1Cl [SG5-133-2],−38%,
Nc1ccc(NC(=O)c2ccc(C(=O)Nc3ccc(N)c(F)c3)cc2)cc1F [SG5-137-1],−24%,
Cl.Nc1ccc(NC(=O)c2ccc(C(=O)Nc3ccc(N)c(Cl)c3)cc2)cc1Cl [SG5-137-2],−52%,
"Cl.Nc1ccc(CNC(=O)c2ccc(C(=O)NCc3ccc(N)cc3)cc2)cc1 [SG5-137-3, N^1,N^4-bis(4-aminobenzyl)terephthalamide dihydrochloride]",,ELISA Inhibition (%) (dihydrochloride): 32% and 60%
Cc1cc(C(=O)Nc2ccc(NC(=O)OC(C)(C)C)c(F)c2)c(C)cc1C(=O)Nc1ccc(NC(=O)OC(C)(C)C)c(F)c1 [SG5-140-1],25%,
CC(C)(C)OC(=O)Nc1ccc(NC(=O)c2ccc(C(=O)Nc3ccc(NC(=O)OC(C)(C)C)c(F)c3)o2)cc1F [SG5-140-2],25%,
"CC(C)(C)OC(=O)Nc1ccc(NC(=O)c2ccc(C(=O)Nc3ccc(NC(=O)OC(C)(C)C)c(F)c3)nc2)cc1F [SG5-140-3, Di-tert-butyl (((pyridine-2,5-dicarbonyl)bis(azanediyl))bis(2-fluoro-4,1-phenylene))dicarbamate]",22%,
CC(C)(C)OC(=O)Nc1ccc(NC(=O)[C@H]2CC[C@H](C(=O)Nc3ccc(NC(=O)OC(C)(C)C)c(F)c3)CC2)cc1F [SG5-140-4],20%,
Cc1cc(C(=O)Nc2ccc(NC(=O)OC(C)(C)C)c(Cl)c2)c(C)cc1C(=O)Nc1ccc(NC(=O)OC(C)(C)C)c(Cl)c1 [SG5-140-5],24%,
CC(C)(C)OC(=O)Nc1ccc(NC(=O)c2ccc(C(=O)Nc3ccc(NC(=O)OC(C)(C)C)c(Cl)c3)o2)cc1Cl [SG5-140-6],17%,
CC(C)(C)OC(=O)Nc1ccc(NC(=O)c2ccc(C(=O)Nc3ccc(NC(=O)OC(C)(C)C)c(Cl)c3)nc2)cc1Cl [SG5-140-7],12%,
